# Measurements from patent US20130023001A1, “USE OF A SUBSTRATE IN A METHOD FOR MEASURING THE ACTIVITY OF PROTEOLYTIC ENZYMES” (priority 2011, published 2013).
# How the values were obtained:
# Format in all cases: biochemical
# [1] = molecular target: T1, thrombin (Homo sapiens, UniProt P00734); assay: measuring method: thrombin generation fluorescent signal in a blood sample containing heparin
# T1 construct: from tissue; host or cells: blood sample (plasma) containing heparin; thrombin generation triggered with tissue factor and calcium
# Protocol: According to one embodiment of the measuring method, the enzymatic activity monitored is that of thrombin generation. The principle lies in the monitoring of the measurement of a fluorescent signal after the enzyme substrate has been brought into contact with a blood sample containing heparin, and the reaction conditions allow the thrombin to cleave the substrate between the peptide part and the fluorophore, in this case rhodamine110.
# In order to implement the method, a blood sample of 40 μL containing heparin is first of all introduced into a microcuvette. 10 μL of the enzyme substrate in accordance with the invention mixed with an initiating reagent, and 10 μL of activating reagent are added thereto. The initiating reagent is […] and it has a concentration of 16.7×10^−3 mol.L^−1. The activating reagent is tissue factor at a concentration of 10^−12 mol.L^−1.
# Next, an excitation signal having a predetermined wavelength is emitted through the microcuvette and the response to the excitation signal is recorded optically over time. Thus, the greater the amount of thrombin generated, the greater the signal response.
# According to one particular embodiment, the enzyme substrate chosen is that corresponding to the embodiment variant V(3) of the first part of the detailed description, and of synthetic formula (R^2−GGR)2-Rhod110. […]
# [2] = test system: unfractionated heparin, Calciparine®; assay: evaluation method for heparin neutralization by anti-Xa activity (chromogenic para-nitroaniline substrate) with unfractionated heparin; conditions: for percentage neutralization of Calciparine®, 100×(1−ΔA1/ΔA2): heparin concentrations between 0 and 1.67 IU/ml
# Source text: (§1) Before referring to the diagrams of the figures, the evaluation method used to quantify the neutralization of the glycosaminoglycans in a blood sample, and in particular a plasma, will be described. This method makes it possible to use both unfractionated heparins and low-molecular-weight heparins. In addition, the method endeavors to test the activity of factor Xa, located at the crossroads of two enzymatic cascades resulting in the formation of thrombin. Moreover, antithrombin, which is a natural inhibitor of thrombin generation, controls the reaction. As soon as it appears, factor Xa couples to its natural substrate, prothrombin, so as to form thrombin. The heparin contained in the sample forms, itself, a complex with antithrombin, which complex promotes the inhibition of factor Xa.
# (§2) Thus, a chromogenic substrate based on para-nitroaniline, which factor Xa hydrolyzes, is used and the release of the para-nitroaniline, which can be measured optically, is then inversely proportional to the concentration of heparin present in the medium. A measurement of the anti-Xa activity is thus deduced therefrom.
# In this first example, the heparin used is an unfractionated calcium heparin sold under the brand name: “Calciparine®”. According to the evaluation method, the anti-Xa activity is recorded and transferred onto the y-axis, as a function of the heparin concentration of the medium. The heparin concentrations vary between 0 and 1.67 IU/ml and are relatively close to the therapeutic concentrations. The first inclined curve 10 corresponds to a first series of measurements wherein physiological saline is added to the blood sample in addition to the para-nitroaniline-based substrate, while the second inclined curve 12 corresponds to a second series of measurements wherein a neutralizing synthetic polymer, polybrene, intended to neutralize the anticoagulant effects of the heparin, is added to the blood sample. This compound is well known for its effects on heparin and is usually employed in methods for measuring the activity of proteolytic enzymes in order to actually dispense with the anticoagulant effect of heparin.
# (§3) The percentage neutralization by the synthetic polymer is determined as being the ratio of the difference in the variation in anti-Xa activity in the medium containing the physiological saline and in the medium containing the neutralizing agent, between two heparin concentrations, and only the variation in activity in the medium containing the physiological saline, between the same two heparin concentrations, this ratio being multiplied by 100 in order to obtain the result as percentage neutralization.
# (§4) The percentage neutralization can also be written more compactly: 100×(1−ΔA1/ΔA2), wherein ΔA1 corresponds to the variation in activity in the presence of neutralizing compound and ΔA2 to the variation in the presence of physiological saline. Thus, the parallel measurement of the variation in the presence of physiological saline makes it possible to establish the reference in each series of measurements.
# [3] = test system: low-molecular-weight heparin, Fragmine®; assay: evaluation method for heparin neutralization by anti-Xa activity (chromogenic para-nitroaniline substrate) with low-molecular-weight heparin
# Source text: as §1, §2, §3, §4
# Still in this first part of the description, the abovementioned evaluation method was implemented with a low-molecular-weight heparin, Fragmine®.
"strength of the thrombin activity signal relative to the series of measurements without heparin ([1]; heparin 1.5 IU/ml, after 30 minutes, FIG. 7) [%]","effect of heparin on the thrombin activity measurement (signal curve with versus without heparin) ([1]; unfractionated heparin 1.5 IU/ml, FIG. 5)",Substance,percentage neutralization of Calciparine® ([2]; heparin 0.42 IU/ml) [%],percentage neutralization of Calciparine® ([2]; heparin 0.83 IU/ml) [%],percentage neutralization of Calciparine® ([2]; heparin 1.25 IU/ml) [%],percentage neutralization of Calciparine® ([2]; heparin 1.67 IU/ml) [%],percentage neutralization of Fragmine® ([3]; heparin 0.42 IU/ml) [%],percentage neutralization of Fragmine® ([3]; heparin 0.83 IU/ml) [%],percentage neutralization of Fragmine® ([3]; heparin 1.25 IU/ml) [%],percentage neutralization of Fragmine® ([3]; heparin 1.67 IU/ml) [%],"percentage neutralization of Calciparine®, 100×(1−ΔA1/ΔA2) [2] [%]"
~3,–,EtM-VR-Rhod110-Ac [reference compound],–,–,–,–,–,–,–,–,–
–,–,R^2GGR-Rhod110-H [V(4)],96,90,89,80,83,83,72,64,–
–,–,(EtM-VR)2-Rhod110 [V(2)],–,–,–,–,71,78,79,78,~100
–,very small effect,(R^2GGR)2-Rhod110 [V(3)],90,93,94,96,88,90,91,91,–
–,–,R^2GGR-Rhod110-R [V(1)],–,–,–,–,64,65,64,72,~100
–,–,R^2GGR-Rhod110-Benzoic [V(5)],100,97,98,98,77,75,75,74,–
